We go through 14 molecules from ChEMBL document CHEMBL1154875, “Pharmacophoric model building for antitubercular activity of the individual Schiff bases of small combinatorial library” (2010).

The subject of the assay is Mycobacterium tuberculosis. Nature of the assay: Antimicrobial activity against Mycobacterium tuberculosis H37Rv ATCC 27294 at 6.25 ug/ml after 24 hrs by Microplate Almar blue assay. The assay is classed as functional. Particulars: H37Rv ATCC 27294, 24 h.
What is called inhibition is the relative decrease from the control value, in per cent. A low value points to little suppression. With `C/C(=N\NC(=O)c1ccncc1)c1ccc([N+](=O)[O-])cc1`, 6.25 µg/mL produced 99% inhibition.

In turn, `O=C(NN/C=C/c1ccccc1)c1cc(/C=C\c2ccco2)on1` registered an inhibition at 6.25 µg/mL of 80%.

In the case of `O=C(N/N=C/c1ccc([N+](=O)[O-])cc1)c1ccco1`, the inhibition at 6.25 µg/mL was determined as 35%.

For `CC(=O)OC(O/C(C)=N/NC(=O)c1ccncc1)c1ccc([N+](=O)[O-])o1` (centres undefined), testing at 6.25 µg/mL gave an inhibition of 84%.

In turn, `C/C(=N/NC(=O)c1cc(/C=C\c2ccco2)on1)c1ccc([N+](=O)[O-])cc1` registered an inhibition at 6.25 µg/mL of 66%.

On to `C/C(=N/NC(=O)c1ccco1)c1ccc([N+](=O)[O-])cc1`, for which the inhibition at 6.25 µg/mL amounted to 62%.

Turning to `CC(=O)OC(O/C(C)=N/NC(=O)c1cc(/C=C\c2ccco2)on1)c1ccc([N+](=O)[O-])o1` (centres undefined), the inhibition at 6.25 µg/mL stood at 59%.

As to `O=C(NN/C=C/c1ccccc1)c1ccncc1`, 6.25 µg/mL produced 54% inhibition.

As for `O=C1Nc2ccccc2/C1=N\NC(=O)c1ccco1`, the inhibition at 6.25 µg/mL was determined as 41%.

The molecule `O=C1Nc2ccccc2/C1=N\NC(=O)c1cc(/C=C\c2ccco2)on1` returned an inhibition at 6.25 µg/mL of 39%.

Molecule `O=C(N/N=C/c1ccc([N+](=O)[O-])cc1)c1cc(/C=C\c2ccco2)on1` had an inhibition at 6.25 µg/mL of 37%.

`CC(=O)OC(O/C(C)=N/NC(=O)c1ccco1)c1ccc([N+](=O)[O-])o1` (centres undefined) gave an inhibition at 6.25 µg/mL of 99%.

The molecule `O=C1Nc2ccccc2/C1=N\NC(=O)c1cccnc1` displayed an inhibition at 6.25 µg/mL of 57%.

In the case of `O=C(N/N=C/c1ccccc1)c1ccncc1` [N'-BENZYLIDENE ISONICOTINOHYDRAZIDE], the inhibition at 6.25 µg/mL was determined as 51%.
